Values after ≈ are worked out from the molar mass of the structure shown. Active and inactive are the calls of the source. The calls are words filed in the database; no cut-off is given here.
Experiments:
Pseudomonas aeruginosa [1] = assay: Antimicrobial activity against Pseudomonas aeruginosa 27853 assessed as increase in absorbance incubated for 20 to 22 hrs; type: functional; settings: time 20-22 hrs
Enterococcus faecalis = assay: Antimicrobial activity against Enterococcus faecalis 29212 assessed as increase in absorbance incubated for 20 to 22 hrs; type: functional; settings: time 20-22 hrs
Escherichia coli [2] = assay: Inhibition of respiratory chain dehydrogenase (RCD) activity in Escherichia coli ATCC 25922 at 4 uM incubated for 90 mins by TTC assay
Escherichia coli [3] = assay: Antimicrobial activity against Escherichia coli ATCC 25922 assessed as increase in absorbance at MIC concentration in presence of < 8 ug/ml Lipopolysaccharide incubated for 8 hrs; type: functional, organism-based; settings: dose < 8.0 µg/ml
Staphylococcus aureus [4] = assay: Antimicrobial activity against methicillin-resistant Staphylococcus aureus 43300 assessed as increase in absorbance incubated for 20 to 22 hrs; type: functional; settings: time 20-22 hrs
[5] = Hemolytic activity in healthy human RBC assessed as hemolysis incubated for 1 hr by microplate reader; type: toxicity, cell-based; settings: erythrocyte
Pseudomonas aeruginosa [6] = assay: Antimicrobial activity against Pseudomonas aeruginosa 25349 assessed as increase in absorbance incubated for 20 to 22 hrs; type: functional; settings: time 20-22 hrs
Escherichia coli [7] = assay: Antimicrobial activity against Escherichia coli ATCC 25922 assessed as increase in absorbance at 8 mg/ml incubated for 8 hrs in presence of trypsin; type: functional, organism-based
HEK-293T = assay: Cytotoxicity against human HEK293T cells assessed as cell death measured after 18 to 24 hrs by MTT assay; type: functional; settings: time 18-24 hrs
Escherichia coli [8] = assay: Antimicrobial activity against Escherichia coli ATCC 25922 assessed as increase in absorbance incubated for 20 to 22 hrs in presence of K+ physiological salt; type: functional, organism-based; settings: time 20-22 hrs
[9] = Cytotoxicity against porcine IPEC-J2 cells assessed as cell death measured after 18 to 24 hrs by MTT assay; type: functional; settings: Sus scrofa, time 18-24 hrs
Escherichia coli [10] = assay: Induction of membrane damage in Escherichia coli ATCC 25922 assessed as ruptured membrane by analysing green fluorescence at 8 uM measured after 1 hr incubation by SYTO - live and dead staining based fluorescence microscopy; type: functional, organism-based
Cell membrane [11] = assay: Induction of depolarization of cytoplasmic membrane (CM) in Escherichia coli ATCC 25922 assessed as fluorescence changes at 1/2 to 3 times of MIC by fluorescent probe DiSC3-5 assay; type: subcellular; settings: time 1000-3000 sec
Escherichia coli [12] = assay: Antimicrobial activity against Escherichia coli ATCC 25922 assessed as increase in absorbance at 8 mg/ml incubated for 8 hrs in presence of pepsin; type: functional, organism-based
Escherichia coli [13] = assay: Antimicrobial activity against Escherichia coli ATCC 25922 assessed as increase in absorbance incubated for 20 to 22 hrs; type: functional; settings: time 20-22 hrs
Escherichia coli [14] = assay: Antibiofilm activity against Escherichia coli ATCC 25922 biofilm assessed as removal of matured biofilm at 16 uM; type: functional, organism-based
[15] = tested on: Staphylococcus epidermidis; assay: Antimicrobial activity against Staphylococcus epidermidis 12228 assessed as increase in absorbance incubated for 20 to 22 hrs; type: functional; settings: time 20-22 hrs
RAW264.7 = assay: Cytotoxicity against mouse RAW264.7 cells assessed as cell death measured after 18 to 24 hrs by MTT assay; type: functional; settings: time 18-24 hrs
Escherichia coli [16] = assay: Antimicrobial activity against Escherichia coli ATCC 25922 assessed as increase in absorbance incubated for 4 hrs in presence of 25% serum; type: functional, organism-based
Cell membrane [17] = assay: Induction of Outer membrane permeability in Escherichia coli ATCC 25922 incubated for 30 mins by N-phenyl-1-naphthylamine (NPN) uptake assay; type: subcellular; settings: dose 1-16 µM
Salmonella typhimurium [18] = assay: Antimicrobial activity against Salmonella typhimurium 7731 assessed as increase in absorbance incubated for 20 to 22 hrs; type: functional, Salmonella enterica subsp. enterica serovar Typhimurium; settings: Salmonella enterica, time 20-22 hrs
Escherichia coli [19] = assay: Antimicrobial activity against Escherichia coli ATCC 25922 assessed as increase in absorbance incubated for 4 hrs in presence of 12.5% serum; type: functional, organism-based
Escherichia coli [20] = assay: Antimicrobial activity against Escherichia coli ATCC 25922 assessed as increase in absorbance at MIC concentration in presence of […] ug/ml Lipopolysaccharide incubated for 8 hrs; type: functional, organism-based; settings: dose 64.0 µg/ml
Escherichia coli [21] = assay: Induction of membrane damage in Escherichia coli ATCC 25922 assessed as ruptured membrane by analysing red fluorescence at 8 uM measured after 1 hr incubation by PI - live and dead staining based fluorescence microscopy; type: functional, organism-based
Escherichia coli [22] = assay: Antimicrobial activity against Escherichia coli K99 assessed as increase in absorbance incubated for 20 to 22 hrs; type: functional; settings: time 20-22 hrs
Escherichia coli [23] = assay: Reduction in intracellular ATP level in Escherichia coli ATCC 25922 at 2 uM measured after 1 hr incubation by Enhanced ATP assay kit; type: functional; set-up: scale not given: the % may be the effect or the level left
Cell membrane [24] = assay: Induction of depolarization of cytoplasmic membrane (CM) in Escherichia coli ATCC 25922 assessed as fluorescence changes at 1/2 to 3 times of MIC measured after 1000 to 3000 seconds by fluorescent probe DiSC3-5 assay; type: subcellular; settings: time 1000-3000 sec
Cell membrane [25] = assay: Induction of cytoplasmic membrane (CM) permeabilization in Escherichia coli ATCC 25922 assessed as utilization of ONPG at 1/2 MIC; type: subcellular
Acinetobacter baumannii [26] = assay: Antimicrobial activity against Acinetobacter baumannii AB1902 assessed as increase in absorbance incubated for 20 to 22 hrs; type: functional; settings: time 20-22 hrs
Escherichia coli [27] = assay: Antimicrobial activity against Escherichia coli K88 assessed as increase in absorbance incubated for 20 to 22 hrs; type: functional; settings: time 20-22 hrs
Escherichia coli [28] = assay: Antimicrobial activity against Escherichia coli ATCC 25922 assessed as increase in absorbance incubated for 20 to 22 hrs in presence of Fe3+ physiological salt; type: functional, organism-based; settings: time 20-22 hrs
Escherichia coli [29] = assay: Antibiofilm activity against Escherichia coli ATCC 25922 biofilm assessed as inhibition of biofilm formation at 2 uM; type: functional, organism-based
Escherichia coli [30] = assay: Induction of ROS accumulation in Escherichia coli ATCC 25922 at 4 uM incubated for 30 mins by DCFH-DA assay; type: functional, organism-based
Escherichia coli [31] = assay: Antimicrobial activity against Escherichia coli ATCC 25922 assessed as increase in absorbance incubated for 20 to 22 hrs in presence of […] physiological salt; type: functional, organism-based; settings: time 20-22 hrs
Salmonella typhimurium [32] = assay: Antimicrobial activity against Salmonella typhimurium 14028 assessed as increase in absorbance incubated for 20 to 22 hrs; type: functional, Salmonella enterica subsp. enterica serovar Typhimurium; settings: Salmonella enterica, time 20-22 hrs
Escherichia coli [33] = assay: Induction of membrane damage in Escherichia coli ATCC 25922 assessed as damaged membrane surface (irregular vesicles protrusions) at 8 uM measured after 1 hr incubation by SEM analysis; type: functional, organism-based
Escherichia coli [34] = assay: Antimicrobial activity against Escherichia coli ATCC 25922 assessed as increase in absorbance incubated for 20 to 22 hrs in presence of Mg2+ physiological salt; type: functional, organism-based; settings: time 20-22 hrs
Escherichia coli [35] = assay: Induction of membrane damage in Escherichia coli ATCC 25922 assessed as damaged membrane surface by analysing leakage (hollow interiors) at 8 uM measured after 1 hr incubation by TEM analysis; type: functional, organism-based
Staphylococcus aureus [36] = assay: Antimicrobial activity against Staphylococcus aureus 29213 assessed as increase in absorbance incubated for 20 to 22 hrs; type: functional; settings: time 20-22 hrs
Staphylococcus aureus [37] = assay: Antimicrobial activity against Staphylococcus aureus 11011 assessed as increase in absorbance incubated for 20 to 22 hrs; type: functional; settings: time 20-22 hrs
Escherichia coli [38] = assay: Antimicrobial activity against Escherichia coli ATCC 25922 assessed as increase in absorbance at 8 mg/ml incubated for 8 hrs in presence of chymotrypsin; type: functional, organism-based
Staphylococcus aureus [39] = assay: Antimicrobial activity against Staphylococcus aureus 25923 assessed as increase in absorbance incubated for 20 to 22 hrs; type: functional; settings: time 20-22 hrs
Escherichia coli [40] = assay: Resistance fold, ratio of MIC for Escherichia coli ATCC 25922 measured after 30 day passage period to MIC for Escherichia coli ATCC 25922; type: functional
Escherichia coli [41] = assay: Antimicrobial activity against Escherichia coli ATCC 25922 assessed as increase in absorbance incubated for 20 to 22 hrs in presence of NH4+ physiological salt; type: functional, organism-based; settings: time 20-22 hrs
Lipopolysaccharide (LPS) = assay: Binding affinity to Escherichia coli O111:B4 Lipopolysaccharide by fluorescent probe BODIPYTR-cadaverine (BC) assay; settings: dose 1-16 µM
Escherichia coli [42] = assay: Antimicrobial activity against Escherichia coli ATCC 25922 assessed as increase in absorbance incubated for 4 hrs in presence of 50% serum; type: functional, organism-based
Acinetobacter baumannii [43] = assay: Antimicrobial activity against Acinetobacter baumannii AB1901 assessed as increase in absorbance incubated for 20 to 22 hrs; type: functional; settings: time 20-22 hrs
Escherichia coli [44] = assay: Resistance fold, ratio of MIC for Escherichia coli ATCC 25922 measured after 7 day passage period to MIC for Escherichia coli ATCC 25922; type: functional

CCCCCCCCCC(=O)NCCCC[C@H](NC(=O)[C@@H](N)CSSC[C@H](N)C(=O)N[C@@H](CCCCNC(=O)CCCCCCCCC)C(=O)NCC(=O)NCC(=O)NCC(=O)N[C@H](CCCNC(=N)N)C(=O)N[C@@H](CCCNC(=N)N)C(=O)N[C@@H](CCCNC(=N)N)C(=O)N1CCC[C@H]1C(=O)O)C(=O)NCC(=O)NCC(=O)NCC(=O)N[C@H](CCCNC(=N)N)C(=O)N[C@@H](CCCNC(=N)N)C(=O)N[C@@H](CCCNC(=N)N)C(=O)N1CCC[C@H]1C(=O)O
MIC (Pseudomonas aeruginosa [1]): 8 µM (≈ 18.2 µg/mL) | MIC (Enterococcus faecalis): 8 µM (≈ 18.2 µg/mL) | inhibition (Escherichia coli [2]): Active | Activity (Escherichia coli [3]): Active | MIC (Staphylococcus aureus [4]): 8 µM (≈ 18.2 µg/mL) | HC10 [5]: 256 µM | MIC (Pseudomonas aeruginosa [6]): 4 µM (≈ 9.12 µg/mL) | Activity (Escherichia coli [7]): Active; Negligible Alteration In Mic Values Found | IC10 (HEK-293T): 256 µM | Activity (Escherichia coli [8]): Active | IC10 [9]: 256 µM | Activity (Escherichia coli [10]): Active | Activity (Cell membrane [11]): Time-dependent-effect | Activity (Escherichia coli [12]): Active; Negligible Alteration In Mic Values Found | MIC (Escherichia coli [13]): 4 µM (≈ 9.12 µg/mL) | Activity (Escherichia coli [14]): Active | MIC [15]: 8 µM (≈ 18.2 µg/mL) | IC10 (RAW264.7): 256 µM | Activity (Escherichia coli [16]): Active | Activity (Cell membrane [17]): Dose-dependent-effect | MIC (Salmonella typhimurium [18]): 8 µM (≈ 18.2 µg/mL) | Activity (Escherichia coli [19]): Active | Activity (Escherichia coli [20]): inactive | Activity (Escherichia coli [21]): Active | MIC (Escherichia coli [22]): 8 µM (≈ 18.2 µg/mL) | Activity (Escherichia coli [23]): ~40% | Activity (Cell membrane [24]): Dose-dependent-effect | Activity (Cell membrane [25]): Active | MIC (Acinetobacter baumannii [26]): 16 µM (≈ 36.5 µg/mL) | MIC (Escherichia coli [27]): 4 µM (≈ 9.12 µg/mL) | Activity (Escherichia coli [28]): Active | Activity (Escherichia coli [29]): Active | Activity (Escherichia coli [30]): Active | Activity (Escherichia coli [31]): Active | MIC (Salmonella typhimurium [32]): 4 µM (≈ 9.12 µg/mL) | Activity (Escherichia coli [33]): Active | Activity (Escherichia coli [34]): Active | Activity (Escherichia coli [35]): Active | MIC (Staphylococcus aureus [36]): 8 µM (≈ 18.2 µg/mL) | MIC (Staphylococcus aureus [37]): 8 µM (≈ 18.2 µg/mL) | Activity (Escherichia coli [38]): Active; Negligible Alteration In Mic Values Found | MIC (Staphylococcus aureus [39]): 8 µM (≈ 18.2 µg/mL) | fold change (FC) (Escherichia coli [40]): <=2 | Activity (Escherichia coli [41]): Active | Activity (Lipopolysaccharide (LPS)): Dose-dependent-effect | Activity (Escherichia coli [42]): Active | MIC (Acinetobacter baumannii [43]): 4 µM (≈ 9.12 µg/mL)

CN[C@H](CC(C)C)C(=O)N[C@H]1C(=O)N[C@@H](CC(N)=O)C(=O)N[C@H]2C(=O)N[C@H]3C(=O)N[C@H](C(=O)N[C@H](C(=O)O)c4cc(O)cc(O)c4-c4cc3ccc4O)[C@H](O)c3ccc(c(Cl)c3)Oc3cc2cc(c3O[C@@H]2O[C@H](CO)[C@@H](O)[C@H](O)[C@H]2O[C@H]2C[C@](C)(N)[C@H](O)[C@H](C)O2)Oc2ccc(cc2Cl)[C@H]1O [VANCOMYCIN]
MIC (Pseudomonas aeruginosa [6]): > 64 µM | MIC (Acinetobacter baumannii [26]): > 64 µM | MIC (Staphylococcus aureus [37]): > 64 µM | MIC (Acinetobacter baumannii [43]): 32 µM (≈ 46.4 µg/mL)

CC[C@H]1OC(=O)[C@H](C)[C@@H](O[C@H]2C[C@@](C)(OC)[C@@H](O)[C@H](C)O2)[C@H](C)[C@@H](O[C@@H]2O[C@H](C)C[C@H](N(C)C)[C@H]2O)[C@](C)(O)C[C@@H](C)C(=O)[C@H](C)[C@@H](O)[C@]1(C)O [ERYTHROMYCIN]
MIC (Pseudomonas aeruginosa [6]): 64 µM (≈ 47 µg/mL) | MIC (Acinetobacter baumannii [26]): > 64 µM | MIC (Staphylococcus aureus [37]): > 64 µM | MIC (Acinetobacter baumannii [43]): 64 µM (≈ 47 µg/mL)

CN(C)[C@@H]1C(O)=C(C(N)=O)C(=O)[C@@]2(O)C(O)=C3C(=O)c4c(O)cccc4[C@@](C)(O)[C@H]3C[C@@H]12 [TETRACYCLINE]
fold change (FC) (Escherichia coli [44]): 8
